Source: ChEMBL document CHEMBL3046287, “Azoxystrobin resistance of French Mycosphaerella graminicola strains assessed by four in vitro bioassays and by screening of G143A substitution” (Crop Prot, 2010)
Converted amounts (≈) assume the structure as drawn.

Experiments:
Format in all cases: functional, organism-based
Zymoseptoria tritici [1] = assay: Antifungal activity against azoxystrobin-resistant Zymoseptoria tritici T0254 carrying cytochrome-b A143 allele assessed as fungal growth inhibition after 6 days at 20 degC by microplate without alamar blue assay; settings: T0254, 144 h
Zymoseptoria tritici [2] = assay: Antifungal activity against azoxystrobin-resistant Zymoseptoria tritici T0262 carrying cytochrome-b A143 allele assessed as fungal growth inhibition after 6 days at 20 degC by microplate without alamar blue assay; settings: T0262, 144 h
Zymoseptoria tritici [3] = assay: Antifungal activity against azoxystrobin-resistant Zymoseptoria tritici T0242 carrying cytochrome-b A143 allele assessed as fungal growth inhibition after 6 days at 20 degC by microplate without alamar blue assay; settings: T0242, 144 h
Zymoseptoria tritici [4] = assay: Antifungal activity against azoxystrobin-sensitive Zymoseptoria tritici T0148 carrying cytochrome-b G143 allele assessed as inhibition of spore germination after 2 days at 18 degC by spotting on PDA medium assay; settings: T0148, 48 h
Zymoseptoria tritici [5] = assay: Antifungal activity against azoxystrobin-resistant Zymoseptoria tritici T0251 carrying cytochrome-b A143 allele assessed as inhibition of spore germination after 2 days at 18 degC by spotting on PDA medium assay; settings: T0251, 48 h
Zymoseptoria tritici [6] = assay: Antifungal activity against azoxystrobin-resistant Zymoseptoria tritici T0485 carrying cytochrome-b A143 allele assessed as inhibition of spore germination after 2 days at 18 degC by spotting on PDA medium assay; settings: T0485, 48 h
Zymoseptoria tritici [7] = assay: Antifungal activity against azoxystrobin-sensitive Zymoseptoria tritici T0214 carrying cytochrome-b G143 allele assessed as inhibition of spore germination after 2 days at 18 degC by spotting on PDA medium assay; settings: T0214, 48 h
Zymoseptoria tritici [8] = assay: Antifungal activity against azoxystrobin-resistant Zymoseptoria tritici T0345 carrying cytochrome-b A143 allele assessed as inhibition of spore germination after 2 days at 18 degC by spotting on PDA medium assay; settings: T0345, 48 h
Zymoseptoria tritici [9] = assay: Antifungal activity against azoxystrobin-sensitive Zymoseptoria tritici T0468 carrying cytochrome-b G143 allele assessed as inhibition of spore germination after 2 days at 18 degC by spotting on PDA medium assay; settings: T0468, 48 h
Zymoseptoria tritici [10] = assay: Antifungal activity against azoxystrobin-sensitive Zymoseptoria tritici T0213 carrying cytochrome-b G143 allele assessed as inhibition of spore germination after 2 days at 18 degC by spotting on PDA medium assay; settings: T0213, 48 h
Zymoseptoria tritici [11] = assay: Antifungal activity against azoxystrobin-sensitive Zymoseptoria tritici T0213 carrying cytochrome-b G143 allele assessed as fungal colony perpendicular diameter changes after 10 days at 18 degC by spotting on PDA medium assay; settings: T0213, 240 h
Zymoseptoria tritici [12] = assay: Antifungal activity against azoxystrobin-sensitive Zymoseptoria tritici IPO94269 carrying cytochrome-b G143 allele assessed as fungal colony perpendicular diameter changes after 10 days at 18 degC by spotting on PDA medium assay; settings: IPO94269, 240 h
Zymoseptoria tritici [13] = assay: Antifungal activity against azoxystrobin-sensitive Zymoseptoria tritici T0470 carrying cytochrome-b G143 allele assessed as fungal growth inhibition after 6 days at 20 degC by microplate without alamar blue assay; settings: T0470, 144 h
Zymoseptoria tritici [14] = assay: Antifungal activity against azoxystrobin-sensitive Zymoseptoria tritici T0470 carrying cytochrome-b G143 allele assessed as fungal colony perpendicular diameter changes after 10 days at 18 degC by spotting on PDA medium assay; settings: T0470, 240 h
Zymoseptoria tritici [15] = assay: Antifungal activity against azoxystrobin-sensitive Zymoseptoria tritici IPO94269 carrying cytochrome-b G143 allele assessed as inhibition of spore germination after 2 days at 18 degC by spotting on PDA medium assay; settings: IPO94269, 48 h
Zymoseptoria tritici [16] = assay: Antifungal activity against azoxystrobin-resistant Zymoseptoria tritici T055 carrying cytochrome-b A143 allele assessed as fungal growth inhibition after 6 days at 20 degC by microplate without alamar blue assay; settings: T055, 144 h
Zymoseptoria tritici [17] = assay: Antifungal activity against azoxystrobin-resistant Zymoseptoria tritici T032 carrying cytochrome-b A143 allele assessed as inhibition of spore germination after 2 days at 18 degC by spotting on PDA medium assay; settings: T032, 48 h
Zymoseptoria tritici [18] = assay: Antifungal activity against azoxystrobin-resistant Zymoseptoria tritici T055 carrying cytochrome-b A143 allele assessed as inhibition of spore germination after 2 days at 18 degC by spotting on PDA medium assay; settings: T055, 48 h
Zymoseptoria tritici [19] = assay: Antifungal activity against azoxystrobin-sensitive Zymoseptoria tritici IPO323 carrying cytochrome-b G143 allele assessed as fungal colony perpendicular diameter changes after 10 days at 18 degC by spotting on PDA medium assay; settings: IPO323, 240 h
Zymoseptoria tritici [20] = assay: Antifungal activity against azoxystrobin-resistant Zymoseptoria tritici T0451 carrying cytochrome-b A143 allele assessed as fungal growth inhibition after 6 days at 20 degC by microplate without alamar blue assay; settings: T0451, 144 h
Zymoseptoria tritici [21] = assay: Antifungal activity against azoxystrobin-sensitive Zymoseptoria tritici T0468 carrying cytochrome-b G143 allele assessed as fungal growth inhibition after 6 days at 20 degC by microplate without alamar blue assay; settings: T0468, 144 h
Zymoseptoria tritici [22] = assay: Antifungal activity against azoxystrobin-resistant Zymoseptoria tritici T032 carrying cytochrome-b A143 allele assessed as fungal growth inhibition after 6 days at 20 degC by microplate without alamar blue assay; settings: T032, 144 h
Zymoseptoria tritici [23] = assay: Antifungal activity against azoxystrobin-sensitive Zymoseptoria tritici T0211 carrying cytochrome-b G143 allele assessed as fungal growth inhibition after 6 days at 20 degC by microplate without alamar blue assay; settings: T0211, 144 h
Zymoseptoria tritici [24] = assay: Antifungal activity against azoxystrobin-resistant Zymoseptoria tritici T0485 carrying cytochrome-b A143 allele assessed as fungal growth inhibition after 6 days at 20 degC by microplate without alamar blue assay; settings: T0485, 144 h
Zymoseptoria tritici [25] = assay: Antifungal activity against azoxystrobin-resistant Zymoseptoria tritici T0414 carrying cytochrome-b A143 allele assessed as fungal growth inhibition after 6 days at 20 degC by microplate without alamar blue assay; settings: T0414, 144 h
Zymoseptoria tritici [26] = assay: Antifungal activity against azoxystrobin-sensitive Zymoseptoria tritici T0211 carrying cytochrome-b G143 allele assessed as inhibition of spore germination after 2 days at 18 degC by spotting on PDA medium assay; settings: T0211, 48 h
Zymoseptoria tritici [27] = assay: Antifungal activity against azoxystrobin-sensitive Zymoseptoria tritici T0464 carrying cytochrome-b G143 allele assessed as inhibition of spore germination after 2 days at 18 degC by spotting on PDA medium assay; settings: T0464, 48 h
Zymoseptoria tritici [28] = assay: Antifungal activity against azoxystrobin-sensitive Zymoseptoria tritici T0210 carrying cytochrome-b G143 allele assessed as fungal growth inhibition after 6 days at 20 degC by microplate without alamar blue assay; settings: T0210, 144 h
Zymoseptoria tritici [29] = assay: Antifungal activity against azoxystrobin-sensitive Zymoseptoria tritici T083 carrying cytochrome-b G143 allele assessed as inhibition of spore germination after 2 days at 18 degC by spotting on PDA medium assay; settings: T083, 48 h
Zymoseptoria tritici [30] = assay: Antifungal activity against azoxystrobin-sensitive Zymoseptoria tritici T0365 carrying cytochrome-b G143 allele assessed as fungal colony perpendicular diameter changes after 10 days at 18 degC by spotting on PDA medium assay; settings: T0365, 240 h

With `CO/C=C(/C(=O)OC)c1ccccc1Oc1cc(Oc2ccccc2C#N)ncn1` [AZOXYSTROBIN] as the compound, how does the IC50 (Zymoseptoria tritici [1]) read?
Its IC50 is 32.6 µg/mL (≈ 80.8 µM).

And the IC50 (Zymoseptoria tritici [2])?
The IC50 was 11.7 µg/mL (≈ 28.9 µM).

What about the IC50 (Zymoseptoria tritici [3]) of the same compound?
The IC50 was > 100 µg/mL.

And the IC50 (Zymoseptoria tritici [4])?
The IC50 was 0.08 µg/mL (≈ 0.198 µM).

And the IC50 (Zymoseptoria tritici [5])?
The IC50 was 34.1 µg/mL (≈ 84.7 µM).

What about the IC50 (Zymoseptoria tritici [6]) of the same compound?
The IC50 was 14.6 µg/mL (≈ 36.3 µM).

And the IC50 (Zymoseptoria tritici [7])?
Its IC50 is 0.03 µg/mL (≈ 0.0744 µM).

And the IC50 (Zymoseptoria tritici [8])?
Its IC50 is 12.6 µg/mL (≈ 31.3 µM).

What about the IC50 (Zymoseptoria tritici [9]) of the same compound?
The IC50 was 0.25 µg/mL (≈ 0.62 µM).

What about the IC50 (Zymoseptoria tritici [10]) of the same compound?
The IC50 was 0.16 µg/mL (≈ 0.397 µM).

What about the IC50 (Zymoseptoria tritici [11]) of the same compound?
Its IC50 is 0.11 µg/mL (≈ 0.273 µM).

And the IC50 (Zymoseptoria tritici [12])?
The IC50 was 0.1 µg/mL (≈ 0.248 µM).

What about the IC50 (Zymoseptoria tritici [13]) of the same compound?
The IC50 was < 0.01 µg/mL.

And the IC50 (Zymoseptoria tritici [14])?
Its IC50 is 0.06 µg/mL (≈ 0.149 µM).

And the IC50 (Zymoseptoria tritici [15])?
Its IC50 is 0.06 µg/mL (≈ 0.149 µM).

What about the IC50 (Zymoseptoria tritici [16]) of the same compound?
The IC50 was > 100 µg/mL.

And the IC50 (Zymoseptoria tritici [17])?
Its IC50 is 11.6 µg/mL (≈ 28.7 µM).

What about the IC50 (Zymoseptoria tritici [18]) of the same compound?
The IC50 was 15.6 µg/mL (≈ 38.6 µM).

What about the IC50 (Zymoseptoria tritici [19]) of the same compound?
The IC50 was 0.03 µg/mL (≈ 0.0744 µM).

What about the IC50 (Zymoseptoria tritici [20]) of the same compound?
The IC50 was > 100 µg/mL.

And the IC50 (Zymoseptoria tritici [21])?
Its IC50 is 0.02 µg/mL (≈ 0.0496 µM).

What about the IC50 (Zymoseptoria tritici [22]) of the same compound?
The IC50 was > 100 µg/mL.

And the IC50 (Zymoseptoria tritici [23])?
Its IC50 is 0.02 µg/mL (≈ 0.0496 µM).

And the IC50 (Zymoseptoria tritici [24])?
The IC50 was > 100 µg/mL.

And the IC50 (Zymoseptoria tritici [25])?
Its IC50 is > 100 µg/mL.

What about the IC50 (Zymoseptoria tritici [26]) of the same compound?
The IC50 was 0.08 µg/mL (≈ 0.198 µM).

And the IC50 (Zymoseptoria tritici [27])?
The IC50 was 0.22 µg/mL (≈ 0.545 µM).

And the IC50 (Zymoseptoria tritici [28])?
Its IC50 is 0.03 µg/mL (≈ 0.0744 µM).

What about the IC50 (Zymoseptoria tritici [29]) of the same compound?
The IC50 was 0.08 µg/mL (≈ 0.198 µM).

And the IC50 (Zymoseptoria tritici [30])?
The IC50 was 0.11 µg/mL (≈ 0.273 µM).
